Literature values in patent publication US9872864B2, “Sustained release composition of prostacyclin” (priority 2011, dated 2018).

Conditions: background statement

CCCCC[C@H](O)CC[C@@H]1[C@H]2Cc3cccc(OCC(=O)O)c3C[C@H]2C[C@H]1O [treprostinil]
half-life: 4 h
